In experiment [1] the test system is Staphylococcus aureus MW2 delta-mecA (mecA-). Nature of the experiment: IC50 (growth, competition assay). As to conditions: cefoxitin: subinhibitory. The gist of the method: (§1)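 Pre-induced, 1:1-mixed fluorescent S. aureus MW2 mecA+ and ΔmecA strains were grown 20 h at 37 °C, 90% humidity, unshaken, in LB with a daily-set subinhibitory cefoxitin dose, in 1536-well plates. Compounds were given on five- or nine-point 2-fold gradients, in two dye-swapped replicates. DsRed (540/590) and GFP (485/520) were scaled per plate between single-strain control medians, with No Treatment then set to 0.5. Per-strain IC50 was the dose halving the No Treatment signal, or the maximal signal.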

Experiment [2] relates to Staphylococcus aureus MW2 (mecA+). Nature of the experiment: IC50 (growth, competition assay). As to conditions: cefoxitin: subinhibitory. In a few lines:
as §1

Structures can show the parent of a compound that is named as a salt.

By IC50 is commonly meant the concentration that gives 50% inhibition. Read a low IC50 as higher potency. For `Cc1cnc(-c2ccccc2C(C)C)nc1NCc1ccc(-n2ccnn2)cc1` [ML323], the IC50 in experiment [1] (fluorescent label: DsRed) was under 9.85 µM; in experiment [1] (fluorescent label: GFP), under 9.85 µM; in experiment [2] (fluorescent label: DsRed) it was 35.3 µM; in experiment [2] (fluorescent label: GFP) it was 49.6 µM.

As to `CN[C@H]1CC[C@@H](c2ccc(Cl)c(Cl)c2)c2ccccc21` [Sertraline hydrochloride], the IC50 in experiment [1] (fluorescent label: DsRed) came out at 22.8 µM; in experiment [1] (fluorescent label: GFP), 33.7 µM; in experiment [2] (fluorescent label: DsRed), 96.4 µM; in experiment [2] (fluorescent label: GFP) it was 77.9 µM.

Consider `CC1=C2C(=CO[C@H](C)[C@H]2C)C(O)=C(C(=O)O)C1=O` [CITRININ], for which the IC50 in experiment [1] (fluorescent label: DsRed) came out at 26.2 µM; in experiment [1] (fluorescent label: GFP), 29.4 µM; in experiment [2] (fluorescent label: DsRed), 29.8 µM; in experiment [2] (fluorescent label: GFP), 47.6 µM.

For the compound `N#CC(c1ccc(Cl)cc1)c1c(Cl)cc(-n2ncc(=O)[nH]c2=O)cc1Cl` (configuration not stated) [CLINACOX], the IC50 in experiment [1] (fluorescent label: DsRed) was under 9.85 µM; in experiment [1] (fluorescent label: GFP) it was under 9.85 µM; in experiment [2] (fluorescent label: DsRed), 15.2 µM; in experiment [2] (fluorescent label: GFP), 23 µM.

With `CN(C)C(=O)C(CCN1CCC(O)(c2ccc(Cl)cc2)CC1)(c1ccccc1)c1ccccc1` [Loperamide hydrochloride], the IC50 came out at 31.4 µM in experiment [1] (fluorescent label: DsRed), 39 µM in experiment [1] (fluorescent label: GFP), 103 µM in experiment [2] (fluorescent label: DsRed) and 109 µM in experiment [2] (fluorescent label: GFP).

Consider `O=C(Nc1ccc([N+](=O)[O-])cc1Cl)c1cc(Cl)ccc1O` [Niclosamide], for which the IC50 in experiment [1] (fluorescent label: DsRed) was under 9.85 µM; in experiment [1] (fluorescent label: GFP), 73.8 µM; in experiment [2] (fluorescent label: DsRed), 113 µM; in experiment [2] (fluorescent label: GFP), under 9.85 µM.

With `CC(C)(C)C#Cc1cc(N(C(=O)[C@H]2CC[C@H](C)CC2)[C@H]2CC[C@H](O)CC2)c(C(=O)O)s1` [VX-222], the IC50 in experiment [1] (fluorescent label: DsRed) turned out to be 16.8 µM; in experiment [1] (fluorescent label: GFP), 17.4 µM; in experiment [2] (fluorescent label: DsRed), 25.7 µM; in experiment [2] (fluorescent label: GFP), 53.7 µM.

Consider `C=C1C(=O)[C@]23[C@H](O)[C@H]1CC[C@H]2[C@@]12CO[C@]3(O)[C@@H](O)[C@@H]1C(C)(C)CC[C@@H]2O` [Oridonin (Isodonol)], for which the IC50 is 13.7 µM in experiment [1] (fluorescent label: DsRed), under 9.85 µM in experiment [1] (fluorescent label: GFP), 29.5 µM in experiment [2] (fluorescent label: DsRed) and 51.5 µM in experiment [2] (fluorescent label: GFP).

As to `COc1cc(-c2ccc(/N=N/c3ccc4c(S(=O)(=O)O)cc(S(=O)(=O)O)c(N)c4c3O)c(OC)c2)ccc1/N=N/c1ccc2c(S(=O)(=O)O)cc(S(=O)(=O)O)c(N)c2c1O` [CHICAGO SKY BLUE], the IC50 was under 9.85 µM in experiment [1] (fluorescent label: DsRed), under 9.85 µM in experiment [1] (fluorescent label: GFP), 24.8 µM in experiment [2] (fluorescent label: DsRed) and 16.5 µM in experiment [2] (fluorescent label: GFP).

For `CC1CCc2c(N3CCC(O)CC3)c(F)cc3c(=O)c(C(=O)O)cn1c23` (configuration not stated) [ACUATIM], the IC50 in experiment [1] (fluorescent label: DsRed), in experiment [1] (fluorescent label: GFP), in experiment [2] (fluorescent label: DsRed) and in experiment [2] (fluorescent label: GFP) was under 9.85 µM throughout.

Turning to `CCN(CC)CCOc1ccc(C(=C(Cl)c2ccccc2)c2ccccc2)cc1` [CLOMID], the IC50 in experiment [1] (fluorescent label: DsRed) is 15.5 µM; in experiment [1] (fluorescent label: GFP), under 9.85 µM; in experiment [2] (fluorescent label: DsRed) it was 23.7 µM; in experiment [2] (fluorescent label: GFP), 34.5 µM.

Turning to `Cc1ccc(C(=O)c2cc(O)c(O)c([N+](=O)[O-])c2)cc1` [Tolcapone], the IC50 is under 9.85 µM in experiment [1] (fluorescent label: DsRed), under 9.85 µM in experiment [1] (fluorescent label: GFP), under 9.85 µM in experiment [2] (fluorescent label: DsRed) and 14.4 µM in experiment [2] (fluorescent label: GFP).

In the case of `Cc1onc(-c2ccccc2Cl)c1C(=O)N[C@@H]1C(=O)N2[C@@H]1SC(C)(C)[C@@H]2C(=O)O` [TEGOPEN], the IC50 in experiment [1] (fluorescent label: DsRed), in experiment [1] (fluorescent label: GFP), in experiment [2] (fluorescent label: DsRed) and in experiment [2] (fluorescent label: GFP) was under 9.85 µM throughout.

As for `CN[C@H](CC(C)C)C(=O)N[C@H]1C(=O)N[C@@H](CC(N)=O)C(=O)N[C@H]2C(=O)N[C@H]3C(=O)N[C@H](C(=O)N[C@H](C(=O)O)c4cc(O)cc(O)c4-c4cc3ccc4O)[C@H](O)c3ccc(c(Cl)c3)Oc3cc2cc(c3O[C@@H]2O[C@H](CO)[C@@H](O)[C@H](O)[C@H]2O[C@H]2C[C@](C)(N)[C@H](O)[C@H](C)O2)Oc2ccc(cc2Cl)[C@H]1O` [VANCOCIN], the IC50 in experiment [1] (fluorescent label: DsRed), in experiment [1] (fluorescent label: GFP), in experiment [2] (fluorescent label: DsRed) and in experiment [2] (fluorescent label: GFP) was under 9.85 µM throughout.

As to `CC(C)(C)c1cc(C(C)(C)C)c(NC(=O)c2c[nH]c3ccccc3c2=O)cc1O` [Ivacaftor (VX-770)], the IC50 in experiment [1] (fluorescent label: DsRed) was 1.27 µM; in experiment [1] (fluorescent label: GFP), 1.6 µM; in experiment [2] (fluorescent label: DsRed) it was 9.86 µM; in experiment [2] (fluorescent label: GFP) it was 14.8 µM.

Take `O=C(OC[C@H]1O[C@@H](OC(=O)c2cc(O)c(O)c(OC(=O)c3cc(O)c(O)c(O)c3)c2)[C@H](OC(=O)c2cc(O)c(O)c(OC(=O)c3cc(O)c(O)c(O)c3)c2)[C@@H](OC(=O)c2cc(O)c(O)c(OC(=O)c3cc(O)c(O)c(O)c3)c2)[C@@H]1OC(=O)c1cc(O)c(O)c(OC(=O)c2cc(O)c(O)c(O)c2)c1)c1cc(O)c(O)c(OC(=O)c2cc(O)c(O)c(O)c2)c1` [TANNIC ACID]: the IC50 in experiment [1] (fluorescent label: DsRed) turned out to be 44 µM; in experiment [1] (fluorescent label: GFP), 55.3 µM; in experiment [2] (fluorescent label: DsRed), 57 µM; in experiment [2] (fluorescent label: GFP), 57.2 µM.

On to `N#Cc1c(Cl)c(Cl)c(Cl)c(C#N)c1Cl` [CHLOROTHALONIL], for which the IC50 in experiment [1] (fluorescent label: DsRed), in experiment [1] (fluorescent label: GFP), in experiment [2] (fluorescent label: DsRed) and in experiment [2] (fluorescent label: GFP) was under 9.85 µM each time.

Regarding `O=C(c1ccc(Nc2nccc(-c3cc4ccccc4s3)n2)cc1)N1CCC(N2CCCC2)CC1` [IKK-16], the IC50 amounted to 18.3 µM in experiment [1] (fluorescent label: DsRed), 17.7 µM in experiment [1] (fluorescent label: GFP), 49.4 µM in experiment [2] (fluorescent label: DsRed) and 56.8 µM in experiment [2] (fluorescent label: GFP).

`[O-][n+]1ccccc1[S-].[O-][n+]1ccccc1[S-].[Zn+2]` [ZINC OMADINE]: the IC50 in experiment [1] (fluorescent label: DsRed), in experiment [1] (fluorescent label: GFP), in experiment [2] (fluorescent label: DsRed) and in experiment [2] (fluorescent label: GFP) was under 9.85 µM each time.

As for `NCCOB(c1ccccc1)c1ccccc1` [AMINOETHOXYDIPHENYLBORANE], the IC50 in experiment [1] (fluorescent label: DsRed) is 11.1 µM; in experiment [1] (fluorescent label: GFP) it was 11.7 µM; in experiment [2] (fluorescent label: DsRed) it was 25.6 µM; in experiment [2] (fluorescent label: GFP), 25.1 µM.

Take `CC(=O)/C=C1/C(=O)N(C)c2ccccc21` [Supercinnamaldehyde]: the IC50 in experiment [1] (fluorescent label: DsRed) is under 9.85 µM; in experiment [1] (fluorescent label: GFP), under 9.85 µM; in experiment [2] (fluorescent label: DsRed), 46.8 µM; in experiment [2] (fluorescent label: GFP), 60.4 µM.

Turning to `Brc1c(Br)c(Br)c2[nH]cnc2c1Br` [TBBz], the half-inhibitory concentration (IC50) in experiment [1] (fluorescent label: DsRed) is 11.7 µM; in experiment [1] (fluorescent label: GFP), 11.3 µM; in experiment [2] (fluorescent label: DsRed), 12.4 µM; in experiment [2] (fluorescent label: GFP) it was 30.5 µM.

For `CC(=O)OCC1=C(C(=O)O)N2C(=O)[C@@H](NC(=O)Cc3cccs3)[C@H]2SC1` [Cephalothin sodium], the IC50 in experiment [1] (fluorescent label: DsRed), in experiment [1] (fluorescent label: GFP), in experiment [2] (fluorescent label: DsRed) and in experiment [2] (fluorescent label: GFP) was under 9.85 µM throughout.

As to `CCN1CCN(C(=O)N[C@@H](C(=O)N[C@@H]2C(=O)N3[C@@H]2SC(C)(C)[C@@H]3C(=O)O)c2ccccc2)C(=O)C1=O` [PIPRACIL], the IC50 in experiment [1] (fluorescent label: DsRed) is under 9.85 µM; in experiment [1] (fluorescent label: GFP) it was under 9.85 µM; in experiment [2] (fluorescent label: DsRed), 26.8 µM; in experiment [2] (fluorescent label: GFP) it was 25.2 µM.

Regarding `Cn1cncc1[C@@](N)(c1ccc(Cl)cc1)c1ccc2c(c1)c(-c1cccc(Cl)c1)cc(=O)n2C` [Tipifarnib (Zarnestra)], the IC50 in experiment [1] (fluorescent label: DsRed) was under 9.85 µM; in experiment [1] (fluorescent label: GFP), 11.3 µM; in experiment [2] (fluorescent label: DsRed), 29.6 µM; in experiment [2] (fluorescent label: GFP) it was 15.1 µM.

Consider `CO/N=C(\C(=O)N[C@@H]1C(=O)N2C(C(=O)OCOC(=O)C(C)(C)C)=C(/C=C\c3scnc3C)CS[C@H]12)c1csc(N)n1` [SPECTRACEF], for which the IC50 in experiment [1] (fluorescent label: DsRed) is under 9.85 µM; in experiment [1] (fluorescent label: GFP), under 9.85 µM; in experiment [2] (fluorescent label: DsRed), 32.9 µM; in experiment [2] (fluorescent label: GFP) it was 18.7 µM.

As for `CC1=C(O)C(=O)C=C2C1=CC=C1[C@@]2(C)CC[C@@]2(C)[C@@H]3C[C@](C)(C(=O)O)CC[C@]3(C)CC[C@]12C` [Celastrol], the 50% inhibitory concentration (IC50) in experiment [1] (fluorescent label: DsRed) was under 0.498 µM; in experiment [1] (fluorescent label: GFP), under 0.498 µM; in experiment [2] (fluorescent label: DsRed) it was 1.67 µM; in experiment [2] (fluorescent label: GFP) it was 1.73 µM.

On to `CC[C@H](c1ccc(O)cc1)[C@@H](CC)c1ccc(O)cc1` [HEXESTROL], for which the IC50 in experiment [1] (fluorescent label: DsRed) is under 9.85 µM; in experiment [1] (fluorescent label: GFP), under 9.85 µM; in experiment [2] (fluorescent label: DsRed), under 9.85 µM; in experiment [2] (fluorescent label: GFP), 29.7 µM.
